# Data from PubChem BioAssay AID1963831 (Molecular Pharmacology Branch, DTP, NCI, 2024).
# Tested on: 889142-216-R-J1-PDC complex spheroid viability
# Experiment: Anticancer human tumor 889142-216-R-J1-PDC patient-derived bladder carcinoma cell line growth inhibition [POLQ]
# Settings: for IC50: curve of first compound; for viability, T/C: stronger effect = lower value
# Outline: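 Complex spheroid viability model combining PDC tumour cells with endothelial (HUVEC) and MSC stromal cells. Novobiocin, ART-558 or RP6685 were tested singly and in combination with standard and investigational anticancer drugs. Each was titrated in half-log steps from near clinical Cmax, or from 10 microM where Cmax was unknown.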
# [1] = second compound 0.0316 µM, first compound 0.0316 µM
# [2] = second compound 0.0316 µM, first compound 0.1 µM
# [3] = second compound 0.0316 µM, first compound 0.316 µM
# [4] = second compound 0.0316 µM, first compound 1 µM
# [5] = second compound 0.0316 µM, first compound 3.16 µM
# [6] = second compound 0.0316 µM, first compound 10 µM
# [7] = second compound 0.1 µM, first compound 0.0316 µM
# [8] = second compound 0.1 µM, first compound 0.1 µM
# [9] = second compound 0.1 µM, first compound 0.316 µM
# [10] = second compound 0.1 µM, first compound 1 µM
# [11] = second compound 0.1 µM, first compound 3.16 µM
# [12] = second compound 0.1 µM, first compound 10 µM
# [13] = second compound 0.316 µM, first compound 0.0316 µM
# [14] = second compound 0.316 µM, first compound 0.1 µM
# [15] = second compound 0.316 µM, first compound 0.316 µM
# [16] = second compound 0.316 µM, first compound 1 µM
# [17] = second compound 0.316 µM, first compound 3.16 µM
# [18] = second compound 0.316 µM, first compound 10 µM
# [19] = second compound 1 µM, first compound 0.0316 µM
# [20] = second compound 1 µM, first compound 0.1 µM
# [21] = second compound 1 µM, first compound 0.316 µM
# [22] = second compound 1 µM, first compound 1 µM
# [23] = second compound 1 µM, first compound 3.16 µM
# [24] = second compound 1 µM, first compound 10 µM
# [25] = second compound 3.16 µM, first compound 0.0316 µM
# [26] = second compound 3.16 µM, first compound 0.1 µM
# [27] = second compound 3.16 µM, first compound 0.316 µM
# [28] = second compound 3.16 µM, first compound 1 µM
# [29] = second compound 3.16 µM, first compound 3.16 µM
# [30] = second compound 3.16 µM, first compound 10 µM
# [31] = second compound 10 µM, first compound 0.0316 µM
# [32] = second compound 10 µM, first compound 0.1 µM
# [33] = second compound 10 µM, first compound 0.316 µM
# [34] = second compound 10 µM, first compound 1 µM
# [35] = second compound 10 µM, first compound 3.16 µM
# [36] = second compound 10 µM, first compound 10 µM
# 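Also: spheroids exposed to compounds for seven days.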
# 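For viability, T/C in this document: 100% = DMSO vehicle control viability.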
compound,measurement,setting,value
Nc1ccn(C2OC(CO)C(O)C2(F)F)c(=O)n1 (centres undefined) + Cc1cccc(N(C)C(=O)C2C(O)CCN2c2nc(C)cc(C(F)(F)F)c2C#N)c1,IC50,second compound 0.0316 µM,177 nM
same,IC50,second compound 0.1 µM,138 nM
same,IC50,second compound 0.316 µM,140 nM
same,IC50,second compound 1 µM,330 nM
same,IC50,second compound 3.16 µM,213 nM
same,IC50,second compound 10 µM,99.1 nM
same,"viability, T/C",[1],67.7%
same,"viability, T/C",[2],49.5%
same,"viability, T/C",[3],48.8%
same,"viability, T/C",[4],40.5%
same,"viability, T/C",[5],40.4%
same,"viability, T/C",[6],31.4%
same,"viability, T/C",[7],59%
same,"viability, T/C",[8],53.9%
same,"viability, T/C",[9],44.5%
same,"viability, T/C",[10],39.1%
same,"viability, T/C",[11],44%
same,"viability, T/C",[12],36.3%
same,"viability, T/C",[13],55.6%
same,"viability, T/C",[14],50.4%
same,"viability, T/C",[15],46%
same,"viability, T/C",[16],45%
same,"viability, T/C",[17],39.1%
same,"viability, T/C",[18],34%
same,"viability, T/C",[19],58.3%
same,"viability, T/C",[20],57.9%
same,"viability, T/C",[21],49.2%
same,"viability, T/C",[22],43.9%
same,"viability, T/C",[23],38.7%
same,"viability, T/C",[24],32.5%
same,"viability, T/C",[25],54.7%
same,"viability, T/C",[26],54.7%
same,"viability, T/C",[27],47.7%
same,"viability, T/C",[28],43.7%
same,"viability, T/C",[29],37.5%
same,"viability, T/C",[30],31.7%
same,"viability, T/C",[31],69.2%
same,"viability, T/C",[32],49%
same,"viability, T/C",[33],43.9%
same,"viability, T/C",[34],43.8%
same,"viability, T/C",[35],46.6%
same,"viability, T/C",[36],34%
O=C(c1cc(Cc2n[nH]c(=O)c3ccccc23)ccc1F)N1CCN(C(=O)C2CC2)CC1 + Cc1cccc(N(C)C(=O)C2C(O)CCN2c2nc(C)cc(C(F)(F)F)c2C#N)c1,IC50,second compound 0.0316 µM,> 10000 nM
same,IC50,second compound 0.1 µM,> 10000 nM
same,IC50,second compound 0.316 µM,> 10000 nM
same,IC50,second compound 1 µM,> 10000 nM
same,IC50,second compound 3.16 µM,> 10000 nM
same,IC50,second compound 10 µM,> 10000 nM
same,"viability, T/C",[1],103%
same,"viability, T/C",[2],99.7%
same,"viability, T/C",[3],108%
same,"viability, T/C",[4],83.3%
same,"viability, T/C",[5],70.1%
same,"viability, T/C",[6],65%
same,"viability, T/C",[7],106%
same,"viability, T/C",[8],116%
same,"viability, T/C",[9],95%
same,"viability, T/C",[10],98.2%
same,"viability, T/C",[11],87.9%
same,"viability, T/C",[12],63.6%
same,"viability, T/C",[13],92.2%
same,"viability, T/C",[14],98.8%
same,"viability, T/C",[15],97.5%
same,"viability, T/C",[16],80.8%
same,"viability, T/C",[17],72%
same,"viability, T/C",[18],64.3%
same,"viability, T/C",[19],105%
same,"viability, T/C",[20],98.5%
same,"viability, T/C",[21],84.7%
same,"viability, T/C",[22],77.3%
same,"viability, T/C",[23],88.5%
same,"viability, T/C",[24],68.5%
same,"viability, T/C",[25],91.3%
same,"viability, T/C",[26],91.7%
same,"viability, T/C",[27],88.8%
same,"viability, T/C",[28],81.5%
same,"viability, T/C",[29],73.7%
same,"viability, T/C",[30],52.9%
same,"viability, T/C",[31],81.8%
same,"viability, T/C",[32],81.3%
same,"viability, T/C",[33],68.7%
same,"viability, T/C",[34],85.8%
same,"viability, T/C",[35],70.1%
same,"viability, T/C",[36],52.4%
